Experimental data reported in US20220081421A1, “ANTIBACTERIAL COMPOUNDS” (Forge Therapeutics, Inc., priority 2018, published 2022).
≈ marks a conversion by molar mass, not a printed value.

What was measured:
[1] = system: E. coli; experiment: MIC by broth microdilution (CLSI), E. coli; assay type: cell-based; conditions: Escherichia coli, broth microdilution, cation adjusted Mueller-Hinton Broth, 35° C., 18-24 h; read-out: E. coli MIC
Protocol: (§1) Minimal inhibitory concentrations (MIC) were determined by the broth microdilution method in accordance with the Clinical and Laboratory Standards Institute (CLSI) guidelines. In brief, organism suspensions were adjusted to a 0.5 McFarland standard to yield a final inoculum between 3×10^5 and 7×10^5 colony-forming units (CFU)/mL. Drug dilutions and inocula were made in sterile, cation adjusted Mueller-Hinton Broth (Beckton Dickinson). An inoculum volume of 100 μL was added to wells containing 100 μL of broth with 2-fold serial dilutions of drug. All inoculated microdilution trays were incubated in ambient air at 35° C. for 18-24 h. Following incubation, the lowest concentration of the drug that prevented visible growth (OD600 nm<0.05) was recorded as the MIC. Performance of the assay was monitored by the use of laboratory quality-control strains and levofloxacin, a compound with a defined MIC spectrum, in accordance with CLSI guidelines.

[2] = system: K. pneumoniae; experiment: MIC by broth microdilution (CLSI), K. pneumoniae; assay type: cell-based; conditions: Klebsiella pneumoniae, broth microdilution, cation adjusted Mueller-Hinton Broth, 35° C., 18-24 h; read-out: K. pneumoniae MIC
Protocol: as §1

Row | SMILES | MIC [1] | MIC [2]
1 | O=c1[nH]cnc(CCc2ccc(C#Cc3ccc(CN4CCOCC4)cn3)cc2)c1O [Compound 16, 5-hydroxy-6-(4-((5-(morpholinomethyl)pyridin-2-yl)ethynyl)phenethyl) pyrimidin-4(3H)-one] | < 1 µg/mL | 1 to 8 µg/mL (≈ 2.4 to 19.2 µM)
2 | CC(=O)NCC(Cc1ccc(C#Cc2ccc(CN3CCOCC3)cc2)cc1)n1cncc(O)c1=O (stereo not shown) [Compound 3, N-(2-(5-hydroxy-6-oxopyrimidin-1(6H)-yl)-3-(4-((4-(morpholinomethyl)phenyl)ethynyl)phenyl)propyl) acetamide] | > 32 µg/mL | –
3 | O=c1[nH]cnc(CCc2ccc(C#Cc3ccc(CNC4CC(O)C4)cc3)cn2)c1O (stereo not shown) [Compound 15, 5-hydroxy-6-(2-(5-((4-(((3-hydroxycyclobutyl)amino)methyl)phenyl)ethynyl)pyridin-2-yl)ethyl)pyrimidin-4(3H)-one] | 8 to 32 µg/mL (≈ 19.2 to 76.8 µM) | > 32 µg/mL
4 | CC(=O)NCC(Cc1ccc(C#Cc2ccc(CN3CCOCC3)cc2)cc1)c1cc[nH]c(=O)c1O (stereo not shown) [Compound 1, N-(2-(3-hydroxy-2-oxo-1,2-dihydropyridin-4-yl)-3-(4-((4-(morpholinomethyl)phenyl)ethynyl)phenyl)propyl) acetamide] | > 32 µg/mL | –
5 | O=C(OC1CCSC1)C(Cc1ccc(C#Cc2ccc(CN3CCOCC3)cc2)cc1)c1nc[nH]c(=O)c1O (stereo not shown) [Compound 115, tetrahydrothiophen-3-yl 2-(5-hydroxy-6-oxo-1,6-dihydropyrimidin-4-yl)-3-(4-((4-(morpholinomethyl)phenyl)ethynyl)phenyl)propanoate] | 8 to 32 µg/mL (≈ 14.7 to 58.6 µM) | > 32 µg/mL
6 | CNC(=O)C(Cc1ccc(C#Cc2ccc(CN3CCOCC3)cc2)cc1)n1cncc(O)c1=O (stereo not shown) [Compound 4, 2-(5-hydroxy-6-oxopyrimidin-1(6H)-yl)-N-methyl-3-(4-((4-(morpholinomethyl)phenyl)ethynyl)phenyl)propanamide] | > 32 µg/mL | –
7 | O=c1[nH]cnc(CN(CCO)c2ccc(C#Cc3ccc(CN4CCOCC4)cc3)cc2)c1O [Compound 127, 5-hydroxy-6-(((2-hydroxyethyl)(4-((4-(morpholinomethyl)phenyl)ethynyl)phenyl)amino)methyl) pyrimidin-4(3H)-one] | > 32 µg/mL | –
8 | O=C1N(Cc2nc[nH]c(=O)c2O)Cc2cc(C#Cc3ccc(CN4CCOCC4)cc3)cn21 [Compound 81, 2-((5-hydroxy-6-oxo-1,6-dihydropyrimidin-4-yl)methyl)-6-((4-(morpholinomethyl)phenyl)ethynyl)-1,2-dihydro-3H-pyrrolo[1,2-c]imidazol-3-one] | 8 to 32 µg/mL (≈ 18 to 71.8 µM) | –
9 | O=c1[nH]cnc(CS(=O)(=O)c2ccc(C#Cc3ccc(CN4CCOCC4)cc3)cc2)c1O [Compound 118, 5-hydroxy-6-(((4-((4-(morpholinomethyl)phenyl)ethynyl)phenyl)sulfonyl)methyl) pyrimidin-4(3H)-one] | 8 to 32 µg/mL (≈ 17.2 to 68.7 µM) | –
10 | CS(=O)(=O)NCC(Cc1ccc(C#Cc2ccc(CN3CCOCC3)cc2)cc1)n1cncc(O)c1=O (stereo not shown) [Compound 7, N-(2-(5-hydroxy-6-oxopyrimidin-1(6H)-yl)-3-(4-((4-(morpholinomethyl)phenyl)ethynyl)phenyl)propyl) methanesulfonamide] | > 32 µg/mL | –
11 | O=c1[nH]cnc(CNc2ccc(C#Cc3ccc(-c4nnn[nH]4)cc3)cc2)c1O [Compound 129, 6-(((4-((4-(1H-tetrazol-5-yl)phenyl)ethynyl)phenyl)amino)methyl)-5-hydroxypyrimidin-4(3H)-one] | > 32 µg/mL | –
12 | CNC(=O)C(Cc1ccc(C#Cc2ccc(CN3CCOCC3)cc2)cc1)c1nccc(O)c1O (stereo not shown) [Compound 12, 2-(3,4-dihydroxypyridin-2-yl)-N-methyl-3-(4-((4-(morpholinomethyl)phenyl)ethynyl)phenyl)propanamide] | 8 to 32 µg/mL (≈ 17 to 67.9 µM) | –
13 | NC(=O)C(Cc1ccc(C#Cc2ccc(CN3CCOCC3)cc2)cc1)n1cncc(O)c1=O (stereo not shown) [Compound 5, 2-(5-hydroxy-6-oxopyrimidin-1(6H)-yl)-3-(4-((4-(morpholinomethyl)phenyl)ethynyl)phenyl)propanamide] | > 32 µg/mL | –
14 | C=CCC(Nc1ccc(C#Cc2ccc(CN3CCOCC3)cc2)cc1)c1occc(=O)c1O (stereo not shown) [Compound 126, 3-hydroxy-2-(1-((4-((4-(morpholinomethyl)phenyl)ethynyl)phenyl)amino)but-3-en-1-yl)-4H-pyran-4-one] | > 32 µg/mL | –
15 | O=c1[nH]cnc(Cn2ccc(C#Cc3ccc(CN4CCOCC4)cc3)cc2=O)c1O [Compound 44, 5-hydroxy-6-((4-((4-(morpholinomethyl)phenyl)ethynyl)-2-oxopyridin-1(2H)-yl)methyl)pyrimidin-4(3H)-one] | 8 to 32 µg/mL (≈ 19.1 to 76.5 µM) | –
16 | N#CC(Cc1ccc(C#Cc2ccc(CN3CCOCC3)cc2)cc1)c1cc[nH]c(=O)c1O (stereo not shown) [Compound 121, 2-(3-hydroxy-2-oxo-1,2-dihydropyridin-4-yl)-3-(4-((4-(morpholinomethyl)phenyl)ethynyl)phenyl)propanenitrile] | > 32 µg/mL | –
17 | O=c1[nH]cnc(CNc2ccc(C#Cc3ccc(-c4ncco4)cc3)cc2)c1O [Compound 128, 5-hydroxy-6-(((4-((4-(oxazol-2-yl)phenyl)ethynyl)phenyl)amino)methyl)pyrimidin-4(3H)-one] | > 32 µg/mL | –
18 | Cn1ccc(=O)c(O)c1CNc1ccc(C#Cc2ccc(CN3CCOCC3)cc2)cc1 [Compound 2, 3-hydroxy-1-methyl-2-(((4-((4-(morpholinomethyl)phenyl)ethynyl)phenyl)amino)methyl) pyridin-4(1H)-one] | 8 to 32 µg/mL (≈ 18.6 to 74.5 µM) | –
19 | O=C(Nc1ccc(C#CC#Cc2ccccc2)cc1)c1occc(=O)c1O [Compound 130, 3-hydroxy-4-oxo-N-(4-(phenylbuta-1,3-diyn-1-yl)phenyl)-4H-pyran-2-carboxamide] | > 32 µg/mL | –
20 | O=c1[nH]cnc(CCc2ncc(C#Cc3ccc(CN4CCOCC4)cc3)cn2)c1O [Compound 21, 5-hydroxy-6-(2-(5-((4-(morpholinomethyl)phenyl)ethynyl)pyrimidin-2-yl)ethyl)pyrimidin-4(3H)-one] | 1 to 8 µg/mL (≈ 2.4 to 19.2 µM) | –
21 | O=C(O)c1ccc(C#Cc2ccc(NCc3occc(=O)c3O)cc2)cc1 [Compound 123, 4-((4-(((3-hydroxy-4-oxo-4H-pyran-2-yl)methyl)amino)phenyl)ethynyl)benzoic acid] | > 32 µg/mL | –
22 | O=c1[nH]cnc(C(Cc2ccc(C#Cc3ccc(CN4CCOCC4)cc3)cc2)Cn2cnnn2)c1O (stereo not shown) [Compound 119, 5-hydroxy-6-(1-(4-((4-(morpholinomethyl)phenyl)ethynyl)phenyl)-3-(1H-tetrazol-1-yl)propan-2-yl)pyrimidin-4(3H)-one] | > 32 µg/mL | –
23 | O=c1ccoc(CS(=O)(=O)c2ccc(C#Cc3ccc(CN4CCOCC4)cc3)cc2)c1O [Compound 124, 3-hydroxy-2-(((4-((4-(morpholinomethyl)phenyl)ethynyl)phenyl)sulfonyl)methyl)-4H-pyran-4-one] | > 32 µg/mL | –
24 | CS(=O)(=O)C(Cc1ccc(C#Cc2ccc(CN3CCOCC3)cc2)cc1)c1occc(=O)c1O (stereo not shown) [Compound 120, 3-hydroxy-2-(l1-(methylsulfonyl)-2-(4-((4-(morpholinomethyl)phenyl)ethynyl)phenyl)ethyl)-4H-pyran-4-one] | > 32 µg/mL | –
25 | NC(=O)C(Cc1ccc(C#Cc2ccc(CN3CCOCC3)cc2)cc1)n1cccc(O)c1=O (stereo not shown) [Compound 6, 2-(3-hydroxy-2-oxopyridin-1(2H)-yl)-3-(4-((4-(morpholinomethyl)phenyl)ethynyl)phenyl)propanamide] | > 32 µg/mL | –
